Test results: patent publication US9458212B2, “Nanoparticles containing a peptide, vectors containing said nanoparticles, and pharmaceutical uses of said nanoparticles and vectors” (CENTRE NATIONAL DE LA RECHERCHE SCIENTIFIQUE (C.N.R.S.), priority 2008, dated 2016)
Non-standard residues stand in square brackets, D forms with d. No end group written: not given here. pS = N[C@@H](COP(=O)(O)O)C(=O)O

Assays:
[1] = test system: T cells present in the lymph nodes draining the site of administration; test: Subcutaneous immunization of BALB/c mice; ex vivo proliferation and cytokine secretion of lymph node cells stimulated with peptide P140; details: s.c., in the presence of CFA
Protocol: Eur. J. Immunol. 33, 287-296].
Female BALB/c mice aged 7 weeks old (4 groups of two mice) are immunized subcutaneously in the flanks with different formulations. […] The mice having received peptide in its free form or in the form of nanoparticles all received the same quantity of peptide, namely 100 μg per mouse.
One week after the immunization, the mice are sacrificed and samples are taken from the lymph nodes of the flank and of the foreleg. The cells issuing from these lymph nodes are cultured ex vivo in a proportion of 5.10^5 cells per well in the presence of different peptide concentrations (0, 6, 20 and 60 μM) so as to study their proliferation and also the secretion of cytokines.
The Th cells are classified into sub-populations, Th1 or Th2, depending on the cytokines that they produce and the function that they perform. Cells of type Th-1 produce in particular interleukin-2 (IL-2) and interferon-γ (IFN-γ), whereas cells of type Th-2 secrete essentially IL-4, IL-5, IL-6, IL-10 and IL-13. The immunization conditions used here, that is to say the use of CFA, encourage the development of a response of type Th1. Therefore, only the secretion of IL-2 and IFN-γ was studied.

[2] = test system: mice; test: Intranasal administration of peptide P140 in mice; format: in vivo
Protocol: At present, the peptide P140 is administered by subcutaneous injection, which is not a comfortable mode of administration for the patient. Several other modes of administration have thus been tested. For instance, intranasal administration has been tested in mice but is not effective.

[3] = test system: T cells present in the lymph nodes draining the site of administration; details: with adjuvant, BALB/c mice, Monneaux et al. 2003; cited from earlier work

## peptide P140: 21 amino acid peptide RIHMVYSKRSGKPRGYAFIEY, serine in position 10 phosphorylated (SEQ ID NO: 1) (RIHMVYSKR[pS]GKPRGYAFIEY; listed as Homo sapiens)
[1]; 100 μg peptide per mouse, cells cultured with 0, 6, 20, 60 μM peptide
  stimulation indices (proliferation): positive and dose-dependent
[1]
  cytokine secretion (IL-2, IFN-γ): dose-dependent responses
[2]
  efficacy of intranasal administration: not effective
[3]
  T cell response after s.c. administration in the presence of adjuvant: activation of the auxiliary T cells Th
